In a melting point compilation (Tetko et al.; mined from patent text by program, amines drawn as free bases though some values may be those of a salt):

| Structure (SMILES) | melting point [°C] |
| --- | --- |
| COc1cccc2c1CCC(n1cc[nH]c1=S)C2 (configuration not stated) | 233 to 235 |
| CC(=O)NC[C@H]1CN(c2ccc3c(c2)CCOC3)C(=O)O1 | 142 to 145 |
| O=C(O)Cc1c(C(=O)O)c2cc(Oc3ccc(C(F)(F)F)cn3)ccc2n1-c1ccc(OC(F)(F)F)cc1 | 203 |
| Cn1ccnc1Sc1ccc(Nc2c(C#N)cnc3cc(/C=C/CO)ccc23)cc1Cl | 220 to 240 |
| CC(CCC(=O)c1ccccc1)C1CC=C2C3=C(CCC21C)C1(C)CCC(O)C(C)(C)C1CC3 (configuration not stated) | 196 to 199 |
| O=C1c2ccccc2CN1C1CCN(CCCCC2(C(=O)NCC(F)(F)F)c3ccccc3-c3ccccc32)CC1 | 143 to 146 |
| O=C(NCCO)C(O)C(Oc1ccccc1[N+](=O)[O-])c1ccccc1 (configuration not stated) | 166 to 188 |
| COc1ccc(/C=C/c2ccccn2)cc1OC1CCCC1 | 76 to 77.5 |
| Cc1cccc(NC(=O)NCC(=O)N(CC(=O)NC(C)(C)C)c2ccccc2)c1 | 214 |
| CC(C)[C@@H]1C[C@@H](CO)NC1=O | 55.9 |
| COC(=O)C(=CNC1CC1)C(=O)c1cc(F)c(Cl)cc1Cl | 150 to 151 |
| COc1ccc(-c2ccc(-c3ccccc3)nc2-c2ccc(OCCN3CCCC3)cc2)cc1 | 100 to 103 |
| O=C1CC(Nc2cc([N+](=O)[O-])ccc2Cl)=NN1c1c(Cl)cc(Cl)cc1Cl | 278 to 280 |
| CN(CCc1ccc(Nc2ncc3c(n2)-c2ccccc2[C@H](c2ccc(F)cc2)C3)cc1)C1CCCCC1 | 160 to 162 |
| CC#CCOc1ccc(SC(C(=O)NO)C2CCCCC2)cc1 (configuration not stated) | 163 |
| CCN(CCc1ccc(Nc2ncc3c(n2)-c2ccccc2C(c2cccc(Br)c2)C3)cc1)Cc1ccncc1 (configuration not stated) | 88 to 90 |
| CC(C)[Si](OC[C@H]1C(C=O)=Cc2cc3c(cc2[C@@H]1O)OCO3)(C(C)C)C(C)C | 87 to 89 |
| OC(CCCl)COc1ccc(Cl)c(Cl)c1 (configuration not stated) | 82 to 84 |
| CC(C)[Si](C(C)C)(C(C)C)C1c2ccccc2-c2ccccc21 | 122 to 123 |
| Cc1noc(NS(=O)(=O)c2ccc(N(C)C)cc2)c1C | 152 to 154 |
| CSc1nccc(C(C)=O)n1 | 35 |
| COc1ccc(NC(=O)N2C(=O)CC(c3ccc(OC)c(OC4CCCC4)c3)N2C)cc1 (configuration not stated) | 123 to 125 |
| Cc1ccnc(NC(=O)c2nnc3ccccc3c2O)c1 | 339 to 341 |
| COCn1c(-c2ncc(CO)s2)cc2cccc(N(C)S(=O)(=O)c3cccs3)c21 | 156 to 157 |
| COc1ccc(-c2c(Cl)c(CN3C(=O)CCC3=O)nc3sc4c(c23)CCN(Cc2ccccc2)C4)cc1 | 241 to 243 |

| Structure (SMILES) | melting point [°C] |
| --- | --- |
| COc1ccc(-c2ccc3c(C(=O)N(C)C)cccc3c2)cc1 | 113 to 116 |
| CC(=O)NC(NC(=O)CC(=O)OCc1ccccc1)C(=O)NCc1ccccc1 (configuration not stated) | 177 to 179 |
| CN(C)C=NC(=O)c1nn(-c2ccccc2)c(=O)cc1Oc1ccccc1 | 175 to 176 |
| CCOC(=O)CC(NC(=O)c1ccc(OC)cc1)C(=O)c1ccco1 (configuration not stated) | 104 to 106 |
| CS(=O)(=O)c1ccc(/C(=C(\CC(=O)O)C(=O)O)c2ccc(Cl)cc2)cc1 | 199 to 200 |
| CC(C(=O)Oc1cc(=O)n(-c2cccc(OC(F)(F)F)c2)c2ncccc12)c1ccccc1 (configuration not stated) | 115 to 117 |
| Cc1c(C)c2ccc(OCCCN3CCC(NC(=O)c4ccccc4)CC3)cc2oc1=O | 201 to 203 |
| CC(C)SC1=C(O)CC(C)(C)CC1=O | 74.5 to 79.5 |
| CSC[C@H](C)NC(=O)c1c(Cl)cccc1C(=O)Nc1ccc(Cn2c(C)nnc2C(F)(F)F)cc1C | 168 to 170 |
| O=C(O)c1ccc(Cn2ccc3cc(OCc4ccc5ccccc5n4)ccc32)cc1 | 212 to 216 |
| CCS(=O)(=O)CCC(=O)NNC(=O)N1Cc2ccccc2Oc2ccc(C(F)(F)F)cc21 | 139 to 145 |
| CC1(C)Cc2sccc2C1N (configuration not stated) | 80 |
| COc1ccc2c(n1)C(=O)c1nccc3c1c-2nc1ccccc13 | > 260 |
| O=Cc1ccc(-c2cccc(-c3ccc(OC(F)(F)F)cc3)n2)cc1 | 109 to 112 |
| C=CCOc1cccc(-c2n[nH]c(-c3ccccc3C)n2)c1 | 72 to 75 |
| Cc1ccc(Sc2nc(Cl)cc(OCCC(C)C)n2)cc1 | 83 to 86 |
| N#CCc1cccc2c1C=CN(C(=O)c1ccccc1)C2C#N (configuration not stated) | 66.4 to 69.7 |
| C=CCN(CC=C)S(=O)(=O)c1ncn(C(=O)N(CC)CC)n1 | 49 to 51 |
| CN(C)C=CC=C(C#N)C(=O)N(C)C | 149 to 150 |
| COc1cc(N)c(Cl)cc1C(=O)NC1CCN(C(=O)OC(C)(C)C)CC1F (configuration not stated) | 198 to 199 |
| COCc1ncc(Nc2ccc(Cl)cc2)nc1-n1nc(C)cc1C | 147 to 151 |
| O=S1(=O)N=C2CCCN2c2ccc(Oc3cccc(O)c3)cc21 | > 300 |
| CCC1c2ccccc2-c2sccc2N1S(=O)(=O)c1ccc(O)cc1 (configuration not stated) | 169 to 171 |
| CCCCCC(C)C(C)c1cc(O)c2c(c1)OC(C)(C)C1=C2CN(C(C)C(=O)NC(N)=O)CC1 (configuration not stated) | 95 to 100 |
| CCCCOC(=O)c1ccc2ccc(C(=O)O)nc2c1OC(=O)C(C)(C)C | 158 |

| Structure (SMILES) | melting point [°C] |
| --- | --- |
| Clc1cccc(-c2nc3cccc(NCc4ccccn4)c3o2)c1 | 115 to 116 |
| O=C(O)COc1cccc(CN2C(=O)C3(COc4cc5c(cc43)CCO5)c3ccccc32)c1 (configuration not stated) | 95 to 96 |
| O=Cc1ccc2c(c1)S(=O)c1ccccc1C=C2 (configuration not stated) | 188 to 190 |
| C=C(C)c1c(C)oc2c(NC(=O)c3c(Cl)cccc3Cl)cccc12 | 147 to 148 |
| CCCCCCOc1c2c(c(-c3ccc4c(c3)OCO4)c3c4c(ccc13)OCO4)C(=O)NC2=O | 222 to 223 |
| COc1ccc2c(c1)cc(/C=C/c1ccccc1Cl)n2CCC#N | 136 to 138 |
| COc1ccc(-c2nc(C)c([N+](=O)[O-])[nH]2)cc1 | 198 to 204 |
| CCn1ncc(C(=S)c2ccc3c(c2C)/C(=N/OC)CCS3)c1O | 92 to 97 |
| C=C(c1ccc(N(C)C)cc1)c1ccc(N2CCCC2)cc1 | 149 to 150 |
| CCN1c2ncc(CCc3ccc(N(C)S(C)(=O)=O)cc3)cc2C(=O)N(C)c2ccc(Cl)nc21 | 196 to 198 |
| Nc1nc(Nc2ccccc2)nc(-c2cc(Cl)ccc2Cl)n1 | 180 to 181 |
| COc1ccc(C2(O)c3cc(NC(=O)CC(C)(C)C)c(C)c(C)c3OC2(C)C)c(OC)c1 (configuration not stated) | 150 to 151 |
| Nc1ncc(I)cc1[N+](=O)[O-] | 213 to 215 |
| COC(=O)c1cc(C(=O)OC)cc(-c2cc(C(=O)OC)cc(C(=O)OC)c2)c1 | 214 to 215 |
| CC(=O)NC(Cc1cc(F)c(F)cc1F)Cc1nnc2n1ccc1ncnn12 (configuration not stated) | 233 to 235 |
| CCN(C)C(=O)N1N=C2c3cc(F)ccc3OC[C@@H]2[C@@H]1c1ccccc1 (racemic) | 133 to 137 |
| COC(=O)c1ccc2c(c1)C(S(=O)(=O)c1ccccc1)CC(=O)CO2 (configuration not stated) | 128 to 130 |
| CC(=O)c1c(F)cccc1N1CCN(CCCCOc2ccc3c(n2)NC(=O)CC3)CC1 | 64 |
| CC(C)(C)OC(=O)N[C@H](Cc1cccc(OC(F)(F)C(F)F)c1)[C@@H](O)c1csc(-c2ccccc2)n1 (racemic) | 127 to 128 |
| CCOC(=O)c1nn(-c2ccccc2)c2c1CCCc1ccccc1-2 | 110 to 111 |
| COc1ccccc1OC(=O)CNC(=O)C(C)SC(=O)c1cccs1 (configuration not stated) | 90.5 to 92 |
| CCOC(=O)COc1cc2onc(-c3ccccc3F)c2cc1Br | 130 to 132 |
| CC(=O)Nc1ccc(-c2cc(C(=O)c3ccc(S(C)(=O)=O)cc3)sc2N2CCOCC2)cc1 | 177 |
| CC1C(=O)c2cc([N+](=O)[O-])ccc2OC1(C)C (configuration not stated) | 78 |
| CC(C)c1cccc(NC(=O)c2ccccc2[N+](=O)[O-])c1 | 65.5 to 68.5 |

| Structure (SMILES) | melting point [°C] |
| --- | --- |
| CCOC(=O)c1ccc(NCCOc2ccccc2)cc1 | 126 to 129 |
| CC(C)(C)CNc1cc(NCC(C)(C)C)nc(N2CCNCC2)n1 | 132 to 136 |
| COc1ccc(Nc2nnc(Cc3ccncc3)c3ccccc23)cc1Cl | 195 to 197 |
| CSc1ncccc1NC(=O)CCCCCSc1nc2ccccc2[nH]1 | 121 to 123 |
| Cc1cc(C)cc(NC(=O)Cc2ccc(OC3(C(=O)N[C@H](CC(C)C)C(=O)O)CCCC3)cc2)c1 | 119 to 120 |
| Cc1cc(C2C(=O)Oc3c2cc(C(C)(C)C)cc3C(C)(C)C)cc(C)c1O (configuration not stated) | 225 to 228 |
| CC(C)(C)OC(=O)N1CCCc2onc(O)c2C1 | 170 to 171 |
| Cc1cnc(NC(=O)C(Cc2ccc(F)cc2)c2ccc(S(C)(=O)=O)cc2)cn1 (configuration not stated) | 172 to 175 |
| COC1OCC[C@@H]1NC(=O)[C@H](CC(C)C)NC(=O)[C@H](CC(C)C)NC(=O)[C@H](CC(C)C)NC(=O)c1ccc2c(c1)Nc1ccccc1S2 (some centres not stated) | 164 to 165 |
| O=C(O)CCc1ccc(NC(=O)C(COC2CCCCO2)NS(=O)(=O)c2ccc(Cl)cc2)cc1 (racemic) | 150 to 151 |
| O=[N+]([O-])c1ccc(C(O)c2ccccn2)c(Cl)c1 (configuration not stated) | 124 to 127 |
| CCCCCCCCCCCCOc1ccc2cc(C(C)C(=O)O)ccc2c1 (configuration not stated) | 96 to 97 |
| O=C(Nc1cccc(S(=O)(=O)N2CCCC2)c1)c1cnn2c(C(F)(F)F)cc(-c3ccc(Cl)cc3)nc12 | 252 |
| CC(Br)C(=O)c1ccccc1NCC(=O)O (configuration not stated) | 144 to 147 |
| CC1(COc2ccc(N3CCN(c4ccc(C(F)(F)F)cc4)CC3)cc2)Cn2cc([N+](=O)[O-])nc2O1 (configuration not stated) | 231 to 233 |
| CCOc1cc(CCCOc2c(CC(=O)O)cccc2OC)n(Cc2ccc(Cl)cc2Cl)n1 | 109 to 110 |
| OC(=S)CC1c2ccccc2Oc2ccccc21 | 131 to 132 |
| ClCc1nc(-c2ccccc2)c(-c2ccccc2)o1 | 43 to 45 |
| COCCNc1cc(Cl)cc(NCCOC)c1[N+](=O)[O-] | 90 |
| CCOC(=O)c1ccc(-c2nc(N)sc2Cc2ccc(S(C)(=O)=O)cc2)cc1 | 206 to 207 |
| O=C1C=CC(O)(c2ccc3ccccc3c2)C=C1 | 137 |
| CCc1nn(CC#N)c(CC)c1Oc1cc(Cl)cc(Cl)c1 | 70 to 72 |
